Experimental data taken from US5654426A, “Ecteinascidins” (priority 1995, dated 1997).
Values after ≈ are worked out from the molar mass of the structure shown.

Experiments:
B-16 melanoma = experiment: In vivo antitumor activity in mice vs. B-16 melanoma
P-388 leukemia cells = experiment: In vivo antitumor activity in mice vs. P-388 leukemia; settings: for T/C vs. P-388 / survivors, P-388: mice
[1] = test system: MX-1 human mammary carcinoma xenograft; experiment: In vivo antitumor activity in mice vs. MX-1 human mammary carcinoma xenograft
[2] = test system: LX-1 human lung carcinoma xenograft; experiment: In vivo antitumor activity in mice vs. LX-1 human lung carcinoma xenograft
[3] = test system: variety of tumor models in mice; experiment: In vivo activity against several tumor models in mice
M-5076 ovarian sarcoma = experiment: In vivo antitumor activity in mice vs. M-5076 ovarian sarcoma
Lewis lung carcinoma = experiment: In vivo antitumor activity in mice vs. Lewis lung carcinoma
[4] = test system: CV-1 monkey kidney cell line; experiment: In vitro activity against CV-1 monkey kidney cell line (non-cancerous); assay type: cell-based; settings: CV-1 monkey kidney (non-cancerous)
Description: (§1) Compounds 3 and 5 described herein were tested in vitro against the following cell lines; P-388 murine leukemia cell line; HT-29 human colon cancer cell line; A-549 human lung adenocarcinoma cell line; and CV-1 monkey kidney cell line (non-cancerous); and the IC50 in μg/ml was determined.

[5] = test system: A-549 human lung adenocarcinoma cell line; experiment: In vitro activity against A-549 human lung adenocarcinoma cell line; assay type: cell-based
Description: as §1

[6] = test system: HT-29 human colon cancer cell line; experiment: In vitro activity against HT-29 human colon cancer cell line; assay type: cell-based
Description: as §1

[7] = test system: P-388 murine leukemia cell line; experiment: In vitro activity against P-388 murine leukemia cell line; assay type: cell-based
Description: as §1

L1210 leukemia cells = experiment: Inhibition of L1210 leukemia cells in plate assays; assay type: cell-based; settings: Mus musculus
Description: Et's 722 (Compound 6) and 736 (Compound 7)inhibit L1210 leukemia cells to the extent of 90% in plate assays at 2.5 and 5.0 μg/ml, respectively.

DNA = settings: Lown et al. 1982; Zmijewski et al. 1985; cited from earlier work
[8] = comparison Compound 1 vs. Compound 6

COc1cc2c(cc1O)CCN[C@]21CSC2c3c(OC(C)=O)c(C)c4c(c3C(COC1=O)N1C2C2NC(Cc3cc(C)c(OC)c(O)c32)[C@@H]1O)OCO4 (stereo partly shown) [Compound 1]
T/C vs. B-16 (B-16 melanoma; 12.5 μg/kg): 253
activity vs. B-16 compared with Compound 6 (B-16 melanoma; [8]): more active
T/C vs. P-388 (P-388 leukemia cells; 12.5 μg/kg day): 190
survivors, P-388 (P-388 leukemia cells; 12.5 μg/kg day): 1/6
T/C vs. MX-1 ([1]; 37.5 μg/kg): 0.05
activity vs. MX-1 compared with Compound 6 [1, 8]: more active
T/C vs. LX-1 ([2]; 25 μg/kg): 0.00
activity vs. LX-1 compared with Compound 6 [2, 8]: more active
in vivo activity in mice [3]: exceedingly potent activity in vivo
T/C vs. M-5076 (M-5076 ovarian sarcoma; 12.5 μg/kg): 204
survivors, M-5076 (M-5076 ovarian sarcoma; 12.5 μg/kg): 5/10
activity vs. M-5076 compared with Compound 6 (M-5076 ovarian sarcoma; [8]): more active
T/C vs. Lewis lung (Lewis lung carcinoma; 25 μg/kg): 0.00
activity vs. Lewis lung compared with Compound 6 (Lewis lung carcinoma; [8]): more active

COc1cc2c(cc1O)CCN[C@]21CSC2c3c(OC(C)=O)c(C)c4c(c3C(COC1=O)N1C2C2c3c(cc(C)c(OC)c3O)CC([C@@H]1O)N2C)OCO4 (stereo partly shown) [Compound 2]
in vivo activity in mice [3]: exceedingly potent activity in vivo

COc1cc2c(cc1O)CCN[C@]21CSC2c3c(OC(C)=O)c(C)c4c(c3C(COC1=O)N1C2C2c3c(cc(C)c(OC)c3O)CC([C@@H]1O)N2C=O)OCO4 (stereo partly shown) [Compound 3, N^12 -Formyl Et 729]
IC50 ([4]; Primates): 5 ng/mL (≈ 6.44 nM)
IC50 ([5]; A549): 2 ng/mL (≈ 2.58 nM)
IC50 [6]: 2 ng/mL (≈ 2.58 nM)
IC50 ([7]; Mus musculus, P388): 0.5 ng/mL (≈ 0.644 nM)

COc1c(C)cc2c(c1O)C1NC(C2)[C@H](O)N2C3COC(=O)[C@]4(CSC(c5c(OC(C)=O)c(C)c6c(c53)OCO6)C12)NCCc1c4[nH]c2ccccc12 (stereo partly shown) [Compound 6]
T/C vs. P-388 (P-388 leukemia cells; 25 μg/kg day): > 265
survivors, P-388 (P-388 leukemia cells; 25 μg/kg day): 2/6
activity vs. P-388 compared with Compound 1 (P-388 leukemia cells; comparison Compound 6 vs. Compound 1): more effective than Compound 1
activity vs. MX-1 human mammary carcinoma xenograft ([1]; mice): slightly active
T/C vs. LX-1 ([2]; 50 μg/kg, mice): 200
in vivo activity in mice [3]: highly active in vivo in mice
inhibition at 2.5 µg/mL (L1210 leukemia cells; at 2.5 μg/ml): 90%
activity vs. M-5076 ovarian sarcoma (M-5076 ovarian sarcoma; mice): slightly active

COc1c(C)cc2c(c1O)C1C3C4SC[C@]5(NCCc6c5[nH]c5ccccc65)C(=O)OCC(c5c6c(c(C)c(OC(C)=O)c54)OCO6)N3[C@@H](O)C(C2)N1C (stereo partly shown) [Compound 7]
inhibition at 5 µg/mL (L1210 leukemia cells; at 5.0 μg/ml): 90%

COC1=C(C)C(=O)C2=C(C1=O)C(CO)N1C(O)C3CC4C(C1C2N1CCOC41)N3C (stereo not shown) [naphthyridinomycin]
reactions with DNA (DNA): reversible reactions

COC1=C(C)C(=O)C2=C(C1=O)C1C3CC4=C(C(=O)C(OC)=C(C)C4=O)C(CNC(=O)C(C)=O)N3C(C#N)C(C2)N1C (stereo not shown) [saframycin A]
reactions with DNA (DNA): reversible reactions

Et 743 N^12 -Oxide [Compound 5]
IC50 against CV-1 [4]: 2.5 ng/mL
IC50 against A-549 [5]: 2.5 ng/mL
IC50 against HT-29 [6]: 2.5 ng/mL
IC50 against P-388 [7]: 1 ng/mL
